“And” between values parts separate entries of the source, which are not always exact repeats. Equal entries are not always repeated. Where two headings read alike, the source gives them in different places.
Tests used:
EKVX = test: NCI sulforhodamine B assay; type: cell-based, human
Experimental: (§1) These assays were carried out at the Developmental Therapeutics Program, Division of Cancer Treatment, National Cancer Institute (Bethesda, Md., U.S.A.). The method consists of incubating varying concentrations of the drug with an inoculum of cells for two days. […] The 57 cell lines included two mouse leukemia lines (P388 parental and adriamycin resistant) and […] human cell lines.
(§2) It should be noted that the first two parameters (GI50 and TGI) relate to antiproliferation effects while the third one (LC50) indicates true cytotoxicity. A value of -4 or greater is considered to denote resistance (inactivity).

HOP-18 = test: NCI sulforhodamine B assay; type: cell-based, human
Experimental: as §1, §2

HOP-92 = test: NCI sulforhodamine B assay; type: cell-based, human
Experimental: as §1, §2

IGROV-1 = test: NCI sulforhodamine B assay; type: cell-based, human
Experimental: as §1, §2

LOX-IMVI = test: NCI sulforhodamine B assay; type: cell-based, human
Experimental: as §1, §2

MALMB-3M = test: NCI sulforhodamine B assay; type: cell-based, human
Experimental: as §1, §2

MCF-7/ADR = test: NCI sulforhodamine B assay; type: cell-based, human
Experimental: as §1, §2

NCl-H226 = test: NCI sulforhodamine B assay; type: cell-based, human
Experimental: as §1, §2

NCl-H460 = test: NCI sulforhodamine B assay; type: cell-based, human
Experimental: as §1, §2

OVCAR-5 = test: NCI sulforhodamine B assay; type: cell-based, human
Experimental: as §1, §2

RPMI-8226 = test: NCI sulforhodamine B assay; type: cell-based, human; details: 2880 min
Experimental: as §1, §2

RXF-393L = test: NCI sulforhodamine B assay; type: cell-based, human
Experimental: as §1, §2

SF-295 = test: NCI sulforhodamine B assay; type: cell-based, human
Experimental: as §1, §2

SF-539 = test: NCI sulforhodamine B assay; type: cell-based, human
Experimental: as §1, §2

SK-MEL-2 = test: NCI sulforhodamine B assay; type: cell-based, human
Experimental: as §1, §2

SK-MEL-5 = test: NCI sulforhodamine B assay; type: cell-based, human
Experimental: as §1, §2

SNB-75 = test: NCI sulforhodamine B assay; type: cell-based, human
Experimental: as §1, §2

SW-620 = test: NCI sulforhodamine B assay; type: cell-based, human; details: for GI50: Homo sapiens, read-out: Log10 GI50 (converted)
Experimental: as §1, §2

UO-31 = test: NCI sulforhodamine B assay; type: cell-based, human
Experimental: as §1, §2

Leukemia = details: leukemia cell lines, 48 h
NSC Lung = details: nsc lung cancer cell lines, 48 h
SC Lung = details: sc lung cancer cell lines, 48 h
CNS = details: cns cancer cell lines, 48 h
Melanoma = details: melanoma cell lines, 48 h
solid tumors = details: solid tumor cell lines, 48 h
[1] = Homo sapiens, 48 h, read-out: Log10 TGI (converted)
[2] = Homo sapiens, read-out: Log10 GI50 (converted)

COC(=O)C1CC2=C(C(=O)c3c(cc4ccccc4c3O)C2=O)C(O[C@H]2C[C@H](NC(=O)C(F)(F)F)[C@H](O)[C@H](C)O2)O1 (mixture of isomers) [BCH-242, (1'S,1R,3S) and (1'S, 1S,3R)-Methyl[11-hydroxy-1-2',3',6'-trideoxy-3-trifluroacetamido-L-lyxohexopyranose)-5,12-dioxo-3,4,5,12-tetrahydroanthraceno[2,3-c]pyran-3-yl]formate]
Log10 GI50 (EKVX): -5.83 log molar | Log10 LC50 (EKVX; 2880 min): -5.27 log molar | CC50 (EKVX; Homo sapiens, 48 h, read-out: Log10 LC50, EKVX (converted)): 6.31 µM | IC100 (EKVX; [1]): 3.39 µM | GI50 (EKVX; [2]): 1.78 µM | Log10 GI50 (HOP-18; HOP-18): -5.94 log molar | Log10 TGI (HOP-18; HOP-18): -5.45 log molar | Log10 LC50 (HOP-18; HOP-18, 2880 min): -4.92 log molar | IC100 (HOP-18; Homo sapiens, HOP-18, 48 h, HOP-18, read-out: Log10 TGI (converted)): 4.9 µM | CC50 (HOP-18; Homo sapiens, HOP-18, 48 h, read-out: Log10 LC50, HOP-18 (converted)): 16.6 µM | GI50 (HOP-18; Homo sapiens, HOP-18, HOP-18, read-out: Log10 GI50 (converted)): 1.91 µM | Log10 LC50 (HOP-92; HOP-92, 2880 min): -5.36 log molar | CC50 (HOP-92; Homo sapiens, HOP-92, 48 h, read-out: Log10 LC50, HOP-92 (converted)): 6.76 µM | Log10 GI50 (IGROV-1): -5.75 log molar | Log10 LC50 (IGROV-1; 2880 min): -5.10 log molar | CC50 (LOX-IMVI; Homo sapiens, LOX IMVI, 48 h, read-out: Log10 LC50, LOX-IMVI (converted)): 5.75 µM | Log10 LC50 (LOX-IMVI; LOX-IMVI, 2880 min): -5.43 log molar | IC100 (MALMB-3M; Homo sapiens, 48 h, MALMB-3M, read-out: Log10 TGI (converted)): 3.24 µM | CC50 (MALMB-3M; Homo sapiens, 48 h, read-out: Log10 LC50, MALMB-3M (converted)): 5.75 µM | GI50 (MALMB-3M; Homo sapiens, MALMB-3M, read-out: Log10 GI50 (converted)): 1.78 µM | Log10 GI50 (MALMB-3M; MALMB-3M): -6.02 log molar | Log10 TGI (MALMB-3M; MALMB-3M): -5.67 log molar | Log10 LC50 (MALMB-3M; MALMB-3M, 2880 min): -5.33 log molar | CC50 (MCF-7/ADR; Homo sapiens, NCI/ADR-RES, 48 h, read-out: Log10 LC50, MCF-7/ADR (converted)): 7.08 µM | Log10 LC50 (MCF-7/ADR; MCF-7/ADR, 2880 min): -5.15 log molar and -5.40 log molar | Log10 GI50 (NCl-H226): -5.71 log molar | Log10 TGI (NCl-H226): -5.44 log molar | IC100 (NCl-H226; [1]): 6.61 µM | GI50 (NCl-H226; [2]): 2.75 µM | IC100 (NCl-H460; Homo sapiens, 48 h, NCl-H460, read-out: Log10 TGI (converted)): 3.98 µM | CC50 (NCl-H460; Homo sapiens, NCI-H460, 48 h, read-out: Log10 LC50, NCl-H460 (converted)): 8.13 µM | Log10 TGI (NCl-H460; NCl-H460): -5.70 log molar | Log10 LC50 (NCl-H460; NCl-H460, 2880 min): -5.33 log molar | IC100 (OVCAR-5; Homo sapiens, OVCAR-5, 48 h, OVCAR-5, read-out: Log10 TGI (converted)): 3.47 µM | CC50 (OVCAR-5; Homo sapiens, OVCAR-5, 48 h, read-out: Log10 LC50, OVCAR-5 (converted)): 5.89 µM | GI50 (OVCAR-5; Homo sapiens, OVCAR-5, OVCAR-5, read-out: Log10 GI50 (converted)): 2 µM | Log10 GI50 (OVCAR-5; OVCAR-5): -5.73 log molar | Log10 TGI (OVCAR-5; OVCAR-5): -5.49 log molar | Log10 LC50 (OVCAR-5; OVCAR-5, 2880 min): -5.24 log molar | Log10 LC50 (RPMI-8226): -4.47 log molar | IC100 (RXF-393L; Homo sapiens, 48 h, RXF-393L, read-out: Log10 TGI (converted)): 2.63 µM | CC50 (RXF-393L; Homo sapiens, 48 h, read-out: Log10 LC50, RXF-393L (converted)): 5.37 µM | GI50 (RXF-393L; Homo sapiens, RXF-393L, read-out: Log10 GI50 (converted)): 1.29 µM | Log10 GI50 (RXF-393L; RXF-393L): -6.05 log molar | Log10 TGI (RXF-393L; RXF-393L): -5.67 log molar | Log10 LC50 (RXF-393L; RXF-393L, 2880 min): -5.32 log molar | IC100 (SF-295; Homo sapiens, SF-295, 48 h, SF-295, read-out: Log10 TGI (converted)): 7.08 µM | GI50 (SF-295; Homo sapiens, SF-295, SF-295, read-out: Log10 GI50 (converted)): 2.4 µM | Log10 GI50 (SF-295; SF-295): -5.70 log molar | Log10 TGI (SF-295; SF-295): -5.41 log molar | IC100 (SF-539; Homo sapiens, SF-539, 48 h, SF-539, read-out: Log10 TGI (converted)): 4.37 µM | CC50 (SF-539; Homo sapiens, SF-539, 48 h, read-out: Log10 LC50, SF-539 (converted)): 9.33 µM | GI50 (SF-539; Homo sapiens, SF-539, SF-539, read-out: Log10 GI50 (converted)): 2.04 µM | Log10 GI50 (SF-539; SF-539): -5.90 log molar | Log10 TGI (SF-539; SF-539): -5.60 log molar | Log10 LC50 (SF-539; SF-539, 2880 min): -5.30 log molar | CC50 (SK-MEL-2; Homo sapiens, SK-MEL-2, 48 h, read-out: Log10 LC50, SK-MEL-2 (converted)): 5.75 µM | Log10 LC50 (SK-MEL-2; SK-MEL-2, 2880 min): -5.39 log molar | IC100 (SK-MEL-5; Homo sapiens, SK-MEL-5, 48 h, SK-MEL-5, read-out: Log10 TGI (converted)): 2.82 µM | CC50 (SK-MEL-5; Homo sapiens, SK-MEL-5, 48 h, read-out: Log10 LC50, SK-MEL-5 (converted)): 5.5 µM | Log10 TGI (SK-MEL-5; SK-MEL-5): -5.73 log molar | Log10 LC50 (SK-MEL-5; SK-MEL-5, 2880 min): -5.36 log molar | IC100 (SNB-75; Homo sapiens, SNB-75, 48 h, SNB-75, read-out: Log10 TGI (converted)): 8.71 µM | CC50 (SNB-75; Homo sapiens, SNB-75, 48 h, read-out: Log10 LC50, SNB-75 (converted)): 30.2 µM | GI50 (SNB-75; Homo sapiens, SNB-75, SNB-75, read-out: Log10 GI50 (converted)): 2.95 µM | Log10 GI50 (SNB-75; SNB-75): -5.63 log molar | Log10 TGI (SNB-75; SNB-75): -5.25 log molar | Log10 LC50 (SNB-75; SNB-75, 2880 min): -4.73 log molar | GI50 (SW-620; SW-620, SW-620): > 100 µM | GI50 (SW-620; SW-620): 1.32 µM | Log10 LC50 (SW-620; SW-620, 2880 min): -5.19 log molar | Log10 GI50 (UO-31): -5.62 log molar | Log10 LC50 (UO-31; 2880 min): -4.77 log molar

Methyl(11-hydroxy-5,12-dioxo-3,4,5,12-tetrahydroanthraceno[2,3-c]pyran-3-yl)ketone and Methyl(5-hydroxy-5,12-dioxo-3,4,5,12-tetrahydroanthraceno[2,3-c]pyran-3-yl)ketone [BCH-687]
Average LOG10 LC50 (Leukemia): > -4.00 log molar | Average LOG10 LC50 (NSC Lung): > -4.23(± 0.07) log molar | Average LOG10 LC50 (SC Lung): > -4.18 log molar | Average LOG10 LC50 (CNS): > -4.15 log molar | Average LOG10 LC50 (Melanoma): -4.28(± 0.09) log molar | Average LOG10 LC50, Mean Potency in solid tumors (solid tumors): -4.21(± 0.05) log molar

From patent US5593970A, “Heterocyclic anthracycline analogs” (priority 1994, dated 1997)
